Test results published in ChEMBL document CHEMBL3098116, “Synthesis and biological evaluation of the pirfenidone derivatives as antifibrotic agents” (Bioorg Med Chem Lett, 2014).

Key:
MRC5 = assay: Antifibrotic activity in human MRC5 cells assessed as inhibition of cell growth after 24 hrs by MTT assay; type: functional, cell-based; details: MRC5, 24 h
[1] = target: T1, Mitogen-activated protein kinase 14 (Homo sapiens, UniProt Q16539); assay: Inhibition of p38alpha (unknown origin) up to 60 mins by ADP-Glo assay
T1 sequence (Q16539 whole entry): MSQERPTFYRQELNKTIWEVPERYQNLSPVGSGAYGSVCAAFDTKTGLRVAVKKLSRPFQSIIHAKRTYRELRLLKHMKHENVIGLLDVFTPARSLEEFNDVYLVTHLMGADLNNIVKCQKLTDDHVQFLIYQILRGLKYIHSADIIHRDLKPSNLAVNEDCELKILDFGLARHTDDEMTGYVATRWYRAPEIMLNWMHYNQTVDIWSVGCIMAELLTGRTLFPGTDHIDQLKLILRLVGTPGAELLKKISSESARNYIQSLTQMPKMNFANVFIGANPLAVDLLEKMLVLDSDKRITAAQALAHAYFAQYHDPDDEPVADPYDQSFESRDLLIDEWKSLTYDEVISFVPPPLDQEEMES

[2] = target: T1, Mitogen-activated protein kinase 14; assay: Ratio of pirfenidone IC50 for compound IC50 for p38alpha (unknown origin) up to 60 mins by ADP-Glo assay

Structure (SMILES)	IC50 (MRC5) [µM]	IC50 [1] [µM]	Ratio IC50 [2]
Cc1ccc(=O)n(-c2ccc(OCCCCN(C)C)cc2)c1	1800		
Cc1ccc(=O)n(-c2ccc(OCCCCCN3CCN(C)CC3)cc2)c1	3410		
Cc1ccc(=O)n(-c2ccc(OCCCCN3CCN(C)CC3)cc2)c1	2330		
Cc1ccc(=O)n(-c2ccc(OCCCN3CCN(C)CC3)cc2)c1	4360		
Cc1ccc(=O)n(-c2ccc(OCCN3CCCC3)cc2)c1	3780		
Cc1ccc(=O)n(-c2ccc(OCCCCCN3CCCCC3)cc2)c1	3670	16.2	
Cc1ccc(=O)n(-c2ccc(OCCCN(C)C)cc2)c1	5220	14.2	
Cc1ccc(=O)n(-c2ccc(OCCN3CCN(C)CC3)cc2)c1	1360		
Cc1ccc(=O)n(-c2ccc(OCCCCCN3CCCC3)cc2)c1	1470		
Cc1ccc(=O)n(-c2ccc(OCCCN3CCCC3)cc2)c1	3000		
CCN(CC)CCCOc1ccc(-n2cc(C)ccc2=O)cc1	2100		
Cc1ccc(=O)n(-c2ccc(OCCCN3CCCCC3)cc2)c1	2550	4.07	40
CCN(CC)CCCCOc1ccc(-n2cc(C)ccc2=O)cc1	2160		
Cc1ccc(=O)n(-c2ccc(OCCN(C)C)cc2)c1	6880		
Cc1ccc(=O)n(-c2ccc(OCCCCN3CCCCC3)cc2)c1	3290	5.21	
Cc1ccc(=O)n(-c2ccc(OCCCN3CCOCC3)cc2)c1	5280		
CCN(CC)CCOc1ccc(-n2cc(C)ccc2=O)cc1	6200		
CCN(CC)CCCCCOc1ccc(-n2cc(C)ccc2=O)cc1	4350		
Cc1ccc(=O)n(-c2ccc(OCCCCN3CCCC3)cc2)c1	1770		
Cc1ccc(=O)n(-c2ccc(OCCCCCN3CCOCC3)cc2)c1	2590		
Cc1ccc(=O)n(-c2ccc(OCCN3CCCCC3)cc2)c1	2480	54.3	
Cc1ccc(=O)n(-c2ccc(OCCN3CCOCC3)cc2)c1	7640		
Cc1ccc(=O)n(-c2ccc(OCCCCCN(C)C)cc2)c1	2980		
Cc1ccc(=O)n(-c2ccc(OCCCCN3CCOCC3)cc2)c1	3030		
Cc1ccc(=O)n(-c2ccccc2)c1 [PIRFENIDONE]	14400	165	
